The values below come from patent US20240092784A1, “CONDENSED HETEROCYCLIC COMPOUND” (NISSAN CHEMICAL CORPORATION, priority 2020, published 2024).

Structures are written as SMILES. Counter-ions that a name gives are not always drawn.

The first experiment deals with human SPR (Homo sapiens (Human), UniProt P35270). In words: Evaluation Example 2: Measurement of human SPR inhibitory activity (seven concentrations, sepiapterin absorbance at 420 nm). It is filed as biochemical. The note with it: Evaluation Example 2, seven concentrations 0.14 nM to 100 nM, 240 minutes at room temperature, read-out: IC50. An outline of the steps: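 Reactions ran 240 min at room temperature in 100 mM Tris-HCl pH 7.5 with 0.01% BSA. They contained tag-cleaved, E. coli-expressed full-length human SPR (diluted to 150 ng/mL), seven compound concentrations from 0.14 to 100 nM, and sepiapterin/NADPH added as a 120 μM/160 μM solution. Inhibition was calculated from sepiapterin absorbance at 420 nm.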
human SPR, sequence (P35270 whole entry): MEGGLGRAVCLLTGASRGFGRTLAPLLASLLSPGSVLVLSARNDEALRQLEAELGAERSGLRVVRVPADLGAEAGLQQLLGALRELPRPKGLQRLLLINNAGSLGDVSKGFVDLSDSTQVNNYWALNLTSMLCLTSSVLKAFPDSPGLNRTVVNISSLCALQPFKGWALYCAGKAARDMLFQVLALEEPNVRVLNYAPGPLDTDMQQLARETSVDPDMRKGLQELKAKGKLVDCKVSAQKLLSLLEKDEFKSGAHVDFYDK
Consider `CC(=O)N1CCC(/C=C/c2cnn3c(O)c(C(=O)NC4CC4)c(=O)n(CC(C)C)c23)CC1` [Synthesis Example 244, (E)-3-(2-(1-Acetylpiperidin-4-yl)vinyl)-N-cyclopropyl-7-hydroxy-4-isobutyl-5-oxo-4,5-dihydropyrazolo[1,5-a]pyrimidine-6-carboxamide], for which the IC50 is 0.99 nM.
Same read-out and setting: next, `CC1(Cn2c(=O)c(C(=O)NC3CC3)c(O)n3nc(N)c(/C=C/C4CCOCC4)c23)CCOCC1` [Synthesis Example 445, (E)-2-Amino-N-cyclopropyl-7-hydroxy-4-((4-methyltetrahydro-2H-pyran-4-yl)methyl)-5-oxo-3-(2-(tetrahydro-2H-pyran-4-yl)vinyl)-4,5-dihydropyrazolo[1,5-a]pyrimidine-6-carboxamide hydrochloride]: 0.66 nM.
Still for that read-out and setting: next, `CC(C)(C)Cn1c(=O)c(C(=O)NC2CC2)c(O)n2nc(-c3cccnc3C#N)cc12` [Synthesis Example 293, 2-(2-Cyanopyridin-3-yl)-N-cyclopropyl-7-hydroxy-4-neopentyl-5-oxo-4,5-dihydropyrazolo[1,5-a]pyrimidine-6-carboxamide]: 2.24 nM.
On the same count and under the same terms, to `O=C(NC1CC1)c1c(O)n2ncc(/C=C/C(=O)N3CCOCC3)c2n(CC2(F)CC2)c1=O` [Synthesis Example 364, (E)-N-Cyclopropyl-4-((1-fluorocyclopropyl)methyl)-7-hydroxy-3-(3-morpholino-3-oxoprop-1-en-1-yl)-5-oxo-4,5-dihydropyrazolo[1,5-a]pyrimidine-6-carboxamide] belongs 0.63 nM; to `COc1ccncc1-c1cc2n(CC(C)(C)C)c(=O)c(C(=O)NC3CC3)c(O)n2n1` [Synthesis Example 282, N-Cyclopropyl-7-hydroxy-2-(4-methoxypyridine-3-yl)-4-neopentyl-5-oxo-4,5-dihydropyrazolo[1,5-a]pyrimidine-6-carboxamide], 4.73 nM.
As for `CC(C)Cn1c(=O)c(C(=O)NC2CC2)c(O)n2ncc(/C=C/C(=O)N3CCC4(CCOCC4)C3)c12` [compound 559, (E)-N-Cyclopropyl-7-hydroxy-4-isobutyl-5-oxo-3-(3-oxo-3-(8-oxa-2-azaspiro[4.5]decan-2-yl)prop-1-en-1-yl)-4,5-dihydropyrazolo[1,5-a]pyrimidine-6-carboxamide], the IC50 amounted to 1 nM.
As to `CC(C)(C)Cn1c(=O)c(C(=O)NC2CC2)c(O)n2nc(-c3ccccn3)cc12` [Synthesis Example 299, N-Cyclopropyl-7-hydroxy-4-neopentyl-5-oxo-2-(pyridin-2-yl)-4,5-dihydropyrazolo[1,5-a]pyrimidine-6-carboxamide], the IC50 was determined as 6.43 nM.
`CC[C@@H]1CCCN1C(=O)/C=C/c1cnn2c(O)c(C(=O)NC3CC3)c(=O)n(CC(C)C)c12` [compound 562, (R,E)-N-Cyclopropyl-3-(3-(2-ethylpyrrolidin-1-yl)-3-oxoprop-1-en-1-yl)-7-hydroxy-4-isobutyl-5-oxo-4,5-dihydropyrazolo[1,5-a]pyrimidine-6-carboxamide]: the IC50 was 1.31 nM.
For `CNc1nn2c(O)c(C(=O)NC3CC3)c(=O)n(CC(C)C)c2c1/C=C/C(=O)N1[C@@H](C)COC[C@@H]1C` [Synthesis Example 432, N-Cyclopropyl-3-((E)-3-((3S,5S)-3,5-dimethylmorpholino)-3-oxoprop-1-en-1-yl)-7-hydroxy-4-isobutyl-2-(methylamino)-5-oxo-4,5-dihydropyrazolo[1,5-a]pyrimidine-6-carboxamide], the IC50 was 0.66 nM.
`CC(C)Cn1c(=O)c(C(=O)NC2CC2)c(O)n2ncc(/C=C/C(=O)N3C[C@H]4C[C@@H]3CO4)c12` [compound 538, 3-((E)-3-((1R,4R)-2-Oxa-5-azabicyclo[2.2.1]heptan-5-yl)-3-oxoprop-1-en-1-yl)-N-cyclopropyl-7-hydroxy-4-isobutyl-5-oxo-4,5-dihydropyrazolo[1,5-a]pyrimidine-6-carboxamide]: the IC50 came out at 0.69 nM.
For `CC(C)Cn1c(=O)c(C(=O)NC2CC2)c(O)n2nc(-c3cccnc3N)c(/C=C/C(=O)N3CCOCC3)c12` [compound 449, (E)-2-(2-Aminopyridin-3-yl)-N-cyclopropyl-7-hydroxy-4-isobutyl-3-(3-morpholino-3-oxoprop-1-en-1-yl)-5-oxo-4,5-dihydropyrazolo[1,5-a]pyrimidine-6-carboxamide], the IC50 was determined as 0.84 nM.
As for `CCOC(=O)/C=C/c1c(NC(=O)OC(C)(C)C)nn2c(O)c(C(=O)NC3CC3)c(=O)n(CC(C)C)c12` [Synthesis Example 412, Ethyl (E)-3-(2-((tert-butoxycarbonyl)amino)-6-(cyclopropylcarbamoyl)-7-hydroxy-4-isobutyl-5-oxo-4,5-dihydropyrazolo[1,5-a]pyrimidin-3-yl)acrylate], the IC50 was 1.85 nM.
Same read-out and setting: next, `COc1nccc(Nc2cc3n(CC(C)(C)C)c(=O)c(C(=O)NC4CC4)c(O)n3n2)n1` [Synthesis Example 332, N-Cyclopropyl-7-hydroxy-2-((2-methoxypyrimidin-4-yl)amino)-4-neopentyl-5-oxo-4,5-dihydropyrazolo[1,5-a]pyrimidine-6-carboxamide]: 2.06 nM.
Take `CC(C)Cn1c(=O)c(C(=O)NC2CC2)c(O)n2ncc(/C=C/C(=O)N3CCC(F)CC3)c12` [compound 463, (E)-N-Cyclopropyl-3-(3-(4-fluoropiperidin-1-yl)-3-oxoprop-1-en-1-yl)-7-hydroxy-4-isobutyl-5-oxo-4,5-dihydropyrazolo[1,5-a]pyrimidine-6-carboxamide]: the IC50 is 0.97 nM.
On to `CC(C)(C)Cn1c(=O)c(C(=O)NC2CC2)c(O)n2nc3c(c12)CCOC(=O)N3` [Synthesis Example 401, N-Cyclopropyl-9-hydroxy-6-neopentyl-2,7-dioxo-1,2,4,5,6,7-hexahydropyrimido[1′,2′:1,5]pyrazolo[3,4-d][1,3]oxazepine-8-carboxamide], for which the IC50 turned out to be 0.56 nM.
With `CNc1nn2c(O)c(C(=O)NC3CC3)c(=O)n(CC(C)C)c2c1/C=C/C(=O)N1CCC(F)(F)C1` [Synthesis Example 428, (E)-N-Cyclopropyl-3-(3-(3,3-difluoropyrrolidin-1-yl)-3-oxoprop-1-en-1-yl)-7-hydroxy-4-isobutyl-2-(methylamino)-5-oxo-4,5-dihydropyrazolo[1,5-a]pyrimidine-6-carboxamide], the IC50 was determined as 0.84 nM.
Still for that read-out and setting: next, `CC(C)Cn1c(=O)c(C(=O)NC2CC2)c(O)n2ncc(/C=C/C(=O)N3CC(F)(F)C3)c12` [compound 555, (E)-N-Cyclopropyl-3-(3-(3,3-difluoroazetidin-1-yl)-3-oxoprop-1-en-1-yl)-7-hydroxy-4-isobutyl-5-oxo-4,5-dihydropyrazolo[1,5-a]pyrimidine-6-carboxamide]: 0.82 nM.
Regarding `CC(C)Cn1c(=O)c(C(=O)NC2CC2)c(O)n2ncc(/C=C/C(=O)N3CCO[C@H](CO)C3)c12` [compound 521, (S,E)-N-Cyclopropyl-7-hydroxy-3-(3-(2-(hydroxymethyl)morpholino)-3-oxoprop-1-en-1-yl)-4-isobutyl-5-oxo-4,5-dihydropyrazolo[1,5-a]pyrimidine-6-carboxamide], the IC50 was 0.59 nM.
In the case of `CC(C)(C)Cn1c(=O)c(C(=O)NC2CC2)c(O)n2nc(-c3cnc(N)nc3)cc12` [Synthesis Example 289, 2-(2-Aminopyrimidin-5-yl)-N-cyclopropyl-7-hydroxy-4-neopentyl-5-oxo-4,5-dihydropyrazolo[1,5-a]pyrimidine-6-carboxamide], the IC50 came to 2.05 nM.
Take `Cc1nn2c(O)c(C(=O)NC3CC3)c(=O)n(CC(C)C)c2c1/C=C/C(=O)N1[C@H](C)CC[C@@H]1C` [Synthesis Example 618, N-Cyclopropyl-3-((E)-3-(cis-2,5-dimethylpyrrolidin-1-yl)-3-oxoprop-1-en-1-yl)-7-hydroxy-4-isobutyl-2-methyl-5-oxo-4,5-dihydropyrazolo[1,5-a]pyrimidine-6-carboxamide]: the IC50 was determined as 1.8 nM.
Consider `Cc1nnc(/C=C/c2cnn3c(O)c(C(=O)NC4CC4)c(=O)n(CC(C)C)c23)o1` [Synthesis Example 269, (E)-N-Cyclopropyl-7-hydroxy-4-isobutyl-3-(2-(5-methyl-1,3,4-oxadiazol-2-yl)vinyl)-5-oxo-4,5-dihydropyrazolo[1,5-a]pyrimidine-6-carboxamide], for which the IC50 turned out to be 1.17 nM.
Turning to `CC(C)(C)Cn1c(=O)c(C(=O)NC2CC2)c(O)n2nc(Nc3ccnc(C(N)=O)n3)cc12` [Synthesis Example 351, 2-((2-Carbamoylpyrimidin-4-yl)amino)-N-cyclopropyl-7-hydroxy-4-neopentyl-5-oxo-4,5-dihydropyrazolo[1,5-a]pyrimidine-6-carboxamide], the IC50 is 0.9 nM.
On to `CC(C)Cn1c(=O)c(C(=O)NC2CC2)c(O)n2ncc(COc3cccnc3)c12` [Synthesis Example 259, N-Cyclopropyl-7-hydroxy-4-isobutyl-5-oxo-3-((pyridin-3-yloxy)methyl)-4,5-dihydropyrazolo[1,5-a]pyrimidine-6-carboxamide], for which the IC50 was determined as 0.18 nM.

The same experiment, now with this note: sepiapterin absorbance, Table 41, read-out: concentration at 50% inhibition of human SPR (IC50).
Turning to `CC(C)Cn1c(=O)c(C(=O)NC2CC2)c(O)n2ncc(/C=C/C(=O)N3CCc4cc(F)ccc43)c12` [Synthesis Example 731, (E)-N-Cyclopropyl-3-(3-(5-fluoroindolin-1-yl)-3-oxoprop-1-en-1-yl)-7-hydroxy-4-isobutyl-5-oxo-4,5-dihydropyrazolo[1,5-a]pyrimidine-6-carboxamide], the IC50 came to 2.89 nM.
The same measure, in the same setting: next, `CC(C)Cn1c(=O)c(C(=O)NC2CC2)c(O)n2ncc(/C=C/C(=O)N3C[C@@H](F)[C@@H](F)C3)c12` [Synthesis Example 722, N-Cyclopropyl-3-((E)-3-(cis-3,4-difluoropyrrolidin-1-yl)-3-oxoprop-1-en-1-yl)-7-hydroxy-4-isobutyl-5-oxo-4,5-dihydropyrazolo[1,5-a]pyrimidine-6-carboxamide]: 0.81 nM.
